The values below come from patent US20080132549A1, “Sulphur-Linked Imidazone Compounds for the Treatment of Hiv/Aids” (Pfizer Inc., priority 2004, published 2008).

Test system in the first data set: not given
Test: not given
Conditions: not given
Turning to `CCn1c(COC(N)=O)nc(C2CC2)c1Sc1cc(C#N)cc(C#N)c1`, the melting point – broadly, the temperature, or range, at which the solid turns liquid – is 170 to 172 °C.
The same measure, in the same setting: in the case of `CCn1c(CCO)nc(C2CC2)c1Sc1cc(C#N)cc(C#N)c1` it was 122 to 124 °C.
For the compound `CCc1nc(CN)n(CC)c1Sc1cc(C#N)cc(C#N)c1`, the melting point is 133 to 135 °C.
In turn, `CCn1c(CO)nc(C(F)(F)F)c1Sc1cc(C#N)cc(C#N)c1` [Example 9] had a melting point of 184 to 186 °C.
The same measure, in the same setting: the same measure for `CCn1c(COC(N)=O)nc(C(C)C)c1Sc1cc(C#N)cc(C#N)c1`: 174 to 175 °C; for `CCn1c(CO)nc(C(C)C)c1Sc1cc(C#N)cc(C#N)c1`: 167 to 169 °C.
Same read-out and setting: the same measure for `CCn1c(COC)nc(C(C)C)c1Sc1cc(C#N)cc(C#N)c1`: 156 to 158 °C.
`CCc1nc(CO)n(CC)c1Sc1cc(C#N)cc(C#N)c1` gave a melting point of 141 to 143 °C.

The next data set concerns the target T1, purified recombinant HIV-1 reverse transcriptase (Human immunodeficiency virus type 1 group M subtype B, UniProt P04585).
T1 construct: purified recombinant HIV-1 reverse transcriptase (RT, EC, 2.7.7.49); made in house; host or cells: Escherichia coli
As to the kind of experiment: Inhibition of HIV-1 reverse transcriptase enzyme ([3H]-Flashplate enzyme assay, 384-well). The data set is classed as biochemical. To be noted: recombinant HIV-1 RT expressed in Escherichia Coli; 5% final DMSO. The text has this: The activity of the compounds of the invention as reverse transcriptase inhibitors may be measured using the following assay.
Inhibition of HIV-1 Reverse Transcriptase Enzyme
The reverse transcriptase activity of the compounds of the invention may be assayed as follows. Using the purified recombinant HIV-1 reverse transcriptase (RT, EC, 2.7.7.49) obtained by expression in Escherichia Coli, a 384-well plate assay system was established for assaying a large number of samples using the [3H]-Flashplate enzyme assay system (NEN-SMP 410A) following the manufacturer's recommendations. The compounds were dissolved in 100% DMSO and diluted with the appropriate buffer to a 5% final DMSO concentration. The inhibitory activity was expressed in percent inhibition relative to the DMSO control.
Consider `CCc1nc(CCOC)n(CC)c1Sc1cc(C#N)cc(C#N)c1` [Example 23, 5-[3,5-Diethyl-2-(2-methoxy-ethyl)-3H-imidazol-4-ylsulfanyl]-isophthalonitrile], for which the half-inhibitory concentration (IC50) (commonly the concentration that gives 50% inhibition) is 147 nM.
As to `Cc1nc(C(F)(F)F)c(Sc2cc(C#N)cc(C#N)c2)n1C` [Example 38], the 50% inhibitory concentration (IC50) was determined as 1070 nM.
Still for that read-out and setting: in the case of `CCn1c(CO)nc(C(F)(F)F)c1Sc1cc(C#N)cc(C#N)c1` [Example 9] it was 1160 nM; in that of `Cn1c(COC(N)=O)nc(C2CC2)c1Sc1cc(C#N)cc(C#N)c1` [Example 14, Carbamic acid 4-cyclopropyl-5-(3,5-dicyano-phenylsulfanyl)-1-methyl-1H-imidazol-2-ylmethyl ester], 353 nM; in that of `CCc1nc(CCO)n(CC)c1Sc1cc(C#N)cc(C#N)c1` [Example 1, 5-[3,5-Diethyl-2-(2-hydroxyethyl)-3H-imidazol-4-ylsulfanyl]-isophthalonitrile], 38 nM.
As for `CCc1nc(CCOC(N)=O)n(C)c1Sc1cc(C#N)cc(C#N)c1` [Example 4, Carbamic acid 2-[5-(3,5-dicyano-phenylsulfanyl)-4-ethyl-1-methyl-1H-imidazol-2-yl]-ethyl ester], the IC50 came out at 926 nM.
Still for that read-out and setting: the same measure for `Cc1nc(C2CC2)c(Sc2cc(C#N)cc(C#N)c2)n1Cc1ccncc1` [Example 40]: 135 nM.
